Test results as given in patent US11771678B2 (NATIONAL UNIVERSITY CORPORATION KUMAMOTO UNIVERSITY, priority 2016, dated 2023).

Legend:
[1] = test system: methylmalonic acidemia-derived NPCs; experiment: cAMP production ability test with Forskolin (intracellular cAMP ELISA); type: cell-based, human; conditions: Forskolin 10 μmol/l, after 24 hours; compared with NPCs from normal iPS cells
Protocol: (3) On the occasion of performing measurement, a pretreatment of cells was carried out. Cells were detached from the culture plate, the number of cells was counted, and centrifugation was performed. After the centrifugation, the supernatant was suctioned, and the residue was suspended in a 0.1 M HCl solution at a concentration of 1×10^6/cells/mL. In the case of cells with a known cell count, a series of these operations was omitted, and 0.1 M HCl was introduced directly onto the culture plate while the cells were adhered. After suspending, the suspension was incubated at room temperature for 10 minutes and then was centrifuged at 600 g/5 minutes. […] (4) For the measurement, measurement was carried out through a series of the following processes. • A neutralizing liquid (Neutralizing reagent) was introduced in an amount of 50 μL into wells other than total activity (TA) and blanks. • Subsequently, 100 μL of a standard diluent was added to non-specific binding (NBS) and BO (0 pmol/mL standard). Furthermore, 50 μL of a standard diluent was added to the wells of NBS. […] The light absorbance at 405 nm was measured. […]

[2] = test system: lethal methylmalonic acid seizure model; experiment: In vivo test using survival rate as index, lethal methylmalonic acid seizure model; parameters: species or system C57BL/6J mice; conditions: db-cAMP 10 μg/kg/dose subcutaneous
Protocol: An evaluation of administration of candidate drugs was carried out using the survival rate as an index, using a lethal methylmalonic acid seizure model.
1. A […] methylmalonic acid solution was intraperitoneally administered to eight-week old C57BL/6J mice at a dose of 20 ml/kg, and thus a lethal methylmalonic acid seizure model was produced.
2. After one day, after two days, and after three days from the administration of methylmalonic acid, subcutaneous administration of db-cAMP (10 μg/kg/dose) as a candidate drug was performed, and a comparison of the survival rates in an administered group and a non-administered group was carried out.

Adenylate cyclase = Adenylate cyclase inhibition by methylmalonic acid: cAMP concentration in B42NPCs; type: cell-based, human; conditions: methylmalonic acid 50 μM or 100 μM in culture fluid, 24 hours
Protocol: cAMP is produced from ATP by Adenylate cyclase. From this point of view, an investigation was conducted on whether methylmalonic acid would inhibit Adenylate cyclase.

[3] = test system: Adenylate cyclase, CREB, phosphorylated CREB; experiment: Protein expression analysis by Western Blotting in B42NPCs; type: cell-based, human; conditions: presence or absence of methylmalonic acid
Protocol: 2. Meanwhile, the protein expression analysis shown in FIG. 6 was carried out based on the existing Western Blotting method.

C=C[C@@]1(C)CC(=O)[C@]2(O)[C@@]3(C)[C@@H](O)CCC(C)(C)[C@@H]3[C@H](O)[C@H](OC(C)=O)[C@@]2(C)O1 [Forskolin, (3R,4aR,5S,6S,6aS,10S,10aR,10bS)-6,10,10b-trihydroxy-3,4a,7,7,10a-pentamethyl-1-oxo-3-vinyldodecahydro-1H-benzo[f]chromen-5-yl acetate]
reactivity to Forskolin (intracellular cAMP concentration) [1]: decrease in reactivity to Forskolin was recognized

CCCC(=O)Nc1ncnc2c1ncn2[C@@H]1O[C@@H]2COP(=O)(O)O[C@H]2[C@H]1OC(=O)CCC [db-cAMP, dibutyl-cAMP]
vital prognosis based on seizure originating from methylmalonic acidemia [2]: markedly ameliorated
survival rate after two days ([2]; non-administered group 14.7%, p<0.001): 75.0%
survival rate one day after the administration of methylmalonic acid ([2]; non-administered group 35.3%): 85.0%

CC(C(=O)O)C(=O)O [methylmalonic acid]
cAMP production power (Adenylate cyclase): as the methylmalonic acid concentration in the culture fluid is higher, the cAMP production power is decreased
total amounts of protein expression of Adenylate cyclase and CREB [3]: constant
